Measured values: ChEMBL document CHEMBL1221255, “New halogenated 3-phenylcoumarins as potent and selective MAO-B inhibitors” (Bioorg Med Chem Lett, 2010)

What was measured:
Homo sapiens = species: Homo sapiens; test: Selectivity ratio of IC50 for human MAOA to IC50 for human MAOB
[1] = molecular target: T1, Amine oxidase [flavin-containing] A (Homo sapiens, UniProt P21397); test: Inhibition of MAOA expressed in BTI insect cells at 100 uM
T1 sequence (P21397 whole entry): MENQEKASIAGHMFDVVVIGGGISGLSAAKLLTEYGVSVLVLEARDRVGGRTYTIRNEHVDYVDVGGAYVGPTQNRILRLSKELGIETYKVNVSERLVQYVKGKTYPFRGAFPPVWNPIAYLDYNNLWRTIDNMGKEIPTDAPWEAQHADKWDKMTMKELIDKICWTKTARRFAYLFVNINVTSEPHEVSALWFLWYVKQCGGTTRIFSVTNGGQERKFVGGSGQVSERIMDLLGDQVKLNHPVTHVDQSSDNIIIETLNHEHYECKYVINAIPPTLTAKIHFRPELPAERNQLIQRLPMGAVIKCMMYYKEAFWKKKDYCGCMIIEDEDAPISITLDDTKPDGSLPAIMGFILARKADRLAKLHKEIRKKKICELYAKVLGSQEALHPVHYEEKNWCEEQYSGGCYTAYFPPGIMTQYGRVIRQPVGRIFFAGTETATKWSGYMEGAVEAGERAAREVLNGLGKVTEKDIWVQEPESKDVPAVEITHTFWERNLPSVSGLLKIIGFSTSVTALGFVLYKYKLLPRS

[2] = molecular target: T2, Amine oxidase [flavin-containing] B (Homo sapiens, UniProt P27338); test: Inhibition of human MAOB expressed in BTI insect cells; assay type: cell-based
T2 sequence (P27338 whole entry): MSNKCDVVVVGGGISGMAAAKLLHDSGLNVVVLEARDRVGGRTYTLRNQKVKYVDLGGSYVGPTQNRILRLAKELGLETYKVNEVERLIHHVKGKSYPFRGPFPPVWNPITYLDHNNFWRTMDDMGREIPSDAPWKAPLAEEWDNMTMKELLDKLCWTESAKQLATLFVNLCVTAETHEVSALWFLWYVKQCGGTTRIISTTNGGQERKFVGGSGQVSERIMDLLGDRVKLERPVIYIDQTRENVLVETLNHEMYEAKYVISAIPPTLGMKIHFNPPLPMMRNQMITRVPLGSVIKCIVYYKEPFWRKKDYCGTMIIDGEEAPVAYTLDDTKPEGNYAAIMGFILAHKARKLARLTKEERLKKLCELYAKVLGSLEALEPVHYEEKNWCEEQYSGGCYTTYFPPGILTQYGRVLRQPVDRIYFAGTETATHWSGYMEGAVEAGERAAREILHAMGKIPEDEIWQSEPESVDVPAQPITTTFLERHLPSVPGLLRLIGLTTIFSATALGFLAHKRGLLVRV

[3] = molecular target: T1, Amine oxidase [flavin-containing] A; test: Inhibition of human MAOA expressed in BTI insect cells

Row | SMILES | Ratio IC50 (Homo sapiens) | IC50 [1] | IC50 [2] [nM] | IC50 [3] [nM]
1 | Cc1cc(Br)c2oc(=O)c(-c3ccccc3)cc2c1 | > 9050 | Not Active | 11.1 | 
2 | Cc1ccc2oc(=O)c(-c3ccccc3Br)cc2c1 | > 23 | Not Active | 4300 | 

The next lines start with the values.

Row | Ratio IC50 (Homo sapiens) | IC50 [1] | IC50 [2] [nM] | IC50 [3] [nM] | SMILES
3 | 6.4 |  | 4890 | 31200 | COc1cc(-c2cc3cc(C)cc(Br)c3oc2=O)cc(OC)c1OC
4 | > 31000 | Not Active | 3.23 |  | COc1ccc(-c2cc3cc(C)cc(Br)c3oc2=O)cc1
5 | > 14000 | Not Active | 7.12 |  | COc1cc(OC)cc(-c2cc3cc(C)cc(Br)c3oc2=O)c1
